Results published in PMC6278306, “Anti-Leishmanial and Cytotoxic Activities of a Series of Maleimides: Synthesis, Biological Evaluation and Structure-Activity Relationship” (Molecules, 2018).
Values after ≈ are worked out from the molar mass of the structure shown.

Columns and labels:
[1] = tested on: L. donovani promastigotes; experiment: In vitro anti-leishmanial assay (Alamar blue, promastigotes); format: cell-based, Leishmania donovani; details: for IC50: Leishmania donovani, 48 h, read-out: L. donvani IC50; for SI: SI = CC50 /IC50, THP1 vs promastigotes; for anti-leishmanial activity, times better than amphotericin B: L. donovani, relative to amphotericin B
Description: Anti-leishmanial activity in vitro was described in terms of IC50, which is the effective concentration (μg/mL) required to achieve 50% growth inhibition, with promastigotes in their exponential growth phase.
In vitro anti-leishmanial assay. The antileishmanial activity of the compounds was tested in vitro against a culture of L. donovani promastigotes. The promastigotes were grown in RPMI 1640 medium supplemented with 10% fetal calf serum (Gibco Chem. Co., 81 Wyman Street, Waltham, MA, USA) at 26 °C. A three day old culture was diluted to 5 × 10^5 promastigotes/mL. Drug dilutions were prepared directly in cell suspension in 96-well plates. Plates were incubated at 26 °C for 48 h and the growth of Leishmania promastigotes was determined by the Alamar blue assay as described earlier. Standard fluorescence was measured on a Fluostar Galaxy plate reader (BMG Lab Technologies, Offenburg, Germany) at an excitation wavelength of 544 nm and an emission wavelength of 590 nm. […] IC50 values were computed from dose-response curves as above. The tested compounds were diluted with six concentrations (from 40–0.0128 μg/mL). Cytotoxicity assay. The in vitro cytotoxicity was determined against human monocytic leukemia cells (THP1) with a simple colorimetric method using the dye Alamar Blue. […] Cells were grown to a density between 0.2 and 1 × 10^6 cells/mL. Culture medium was replaced every 2–3 days with fresh growth medium. DMSO was used as the solvent, and the test compounds was with six concentrations from 10–0.0032 μg/mL.

[2] = Cytotoxicity assay (Alamar Blue); format: cell-based; details: human, concentrations 10–0.0032 μg/mL
Description: In order to verify the safety of maleimides, they were tested for cytotoxicity against human monocytic leukemia cells (THP1) 50% cytotoxic concentration values represent the concentration of compound required to kill 50% of the THP1 cells were calculated (CC50). The selectivity indices were calculated using the formula SI = CC50 /IC50, against promastigotes. […] SIs of 16 and 42 were greater than 781.3.
In vitro anti-leishmanial assay. The antileishmanial activity of the compounds was tested in vitro against a culture of L. donovani promastigotes. The promastigotes were grown in RPMI 1640 medium supplemented with 10% fetal calf serum (Gibco Chem. Co., 81 Wyman Street, Waltham, MA, USA) at 26 °C. A three day old culture was diluted to 5 × 10^5 promastigotes/mL. Drug dilutions were prepared directly in cell suspension in 96-well plates. Plates were incubated at 26 °C for 48 h and the growth of Leishmania promastigotes was determined by the Alamar blue assay as described earlier. Standard fluorescence was measured on a Fluostar Galaxy plate reader (BMG Lab Technologies, Offenburg, Germany) at an excitation wavelength of 544 nm and an emission wavelength of 590 nm. Pentamidine and amphotericin B were used as the standard anti-leishmanial agents. IC50 values were computed from dose-response curves as above. The tested compounds were diluted with six concentrations (from 40–0.0128 μg/mL). Cytotoxicity assay. The in vitro cytotoxicity was determined against human monocytic leukemia cells (THP1) with a simple colorimetric method using the dye Alamar Blue. […] Cells were grown to a density between 0.2 and 1 × 10^6 cells/mL. Culture medium was replaced every 2–3 days with fresh growth medium. DMSO was used as the solvent, and the test compounds was with six concentrations from 10–0.0032 μg/mL.
The in vitro cytotoxicity was determined against human monocytic leukemia cells (THP1) with a simple colorimetric method using the dye Alamar Blue, which was reported in the reference (Mikus, J.; Steverding, D. A simple colorimetric method to screen drug cytotoxicity against Leishmania, using the dye Alamar Blue. Parasitol Int. 2000, 48(3),265-269.). THP1 suspensions were grown in RPMI-1640 medium supplemented with 10% FBS, 2 mM glutamine, 50 μg/mL […]
were grown to a density between 0.2 and 1×10^6 cells/mL. Culture medium was replaced every 2-3 days with fresh growth medium. DMSO was used as the solvent, and the test compounds was with six concentrations from 10-0.0032μg/mL.

β-(1,3)-glucan synthase = tested on: β-(1,3)-glucan synthase; set-up: method as in PMID 21612375; details: cited from earlier work
[3] = THP1 cells (human monocytic leukemia)

SMILES | IC50 [1] | SI [1] | CC50 [2, 3] | CC50 ([2]; THP1 cells) | anti-leishmanial activity, times better than amphotericin B [1] | melting point | IC50 β-(1,3)-glucan synthase (β-(1,3)-glucan synthase)
CCCCCN1C(=O)C=C(C)C1=O [Compound 18] | 0.58 µg/mL (≈ 3.2 µM) | 13.2 | 7.64 µg/mL (≈ 42.2 µM) |  |  |  | 
CCCCN1C(=O)C(Cl)=C(Cl)C1=O [Compound 28] | 0.47 µg/mL (≈ 2.12 µM) | >21.3 |  | > 10 µg/mL |  |  | 
O=C1C=CC(=O)N1c1ccccc1 [Compound 9] | 0.24 µg/mL (≈ 1.39 µM) | >41.7 | > 10 µg/mL |  |  |  | 
CC1=CC(=O)N(Cc2ccccc2)C1=O [Compound 21] | 0.58 µg/mL (≈ 2.88 µM) | 13.7 | 7.94 µg/mL (≈ 39.5 µM) |  |  |  | 
O=C1C(Cl)=C(Cl)C(=O)N1c1cc(Cl)cc(Cl)c1 [Compound 43] | 0.99 µg/mL (≈ 3.18 µM) | >10.1 |  | > 10 µg/mL |  |  | 
Cc1c(N2C(=O)C(Cl)=C(Cl)C2=O)cccc1[N+](=O)[O-] [Compound 42] | < 0.0128 µg/mL |  | > 10 µg/mL |  | 10 | 168.8 to 169.9 °C | 
O=C1C=CC(=O)N1C1CCCCC1 [Compound 17] | 0.26 µg/mL (≈ 1.45 µM) | >38.5 | > 10 µg/mL |  |  |  | 
CCCCN1C(=O)C=CC1=O [Compound 1] | 0.08 µg/mL (≈ 0.522 µM) | >125.0 | > 10 µg/mL |  |  |  | 
CCCCCCCCN1C(=O)C=CC1=O [Compound 4] | 0.27 µg/mL (≈ 1.29 µM) | >37.0 | > 10 µg/mL |  |  |  | 
CCCCCCN1C(=O)C(Cl)=C(Cl)C1=O [Compound 30] | 0.49 µg/mL (≈ 1.96 µM) | >20.4 |  | > 10 µg/mL |  |  | 
CC1=CC(=O)N(c2cc(Cl)cc(Cl)c2)C1=O [Compound 25] | 0.34 µg/mL (≈ 1.33 µM) | 2.4 |  | 0.8 µg/mL (≈ 3.12 µM) |  | 170.8 to 173.2 °C | 
CC1=CC(=O)N(CC(C)C)C1=O [Compound 26] | 0.64 µg/mL (≈ 3.83 µM) | >15.6 | > 10 µg/mL |  |  |  | 
O=C1C=CC(=O)N1c1ccc(F)cc1 [Compound 11] | 0.32 µg/mL (≈ 1.67 µM) | >31.3 | > 10 µg/mL |  |  |  | 
Cc1ccc(N2C(=O)C=CC2=O)cc1 [Compound 10] | 0.15 µg/mL (≈ 0.801 µM) | >66.7 | > 10 µg/mL |  |  |  | 
Cc1c(Cl)cccc1N1C(=O)C(Cl)=C(Cl)C1=O [Compound 40] | 0.13 µg/mL (≈ 0.447 µM) | >76.9 |  | > 10 µg/mL |  | 162.3 to 164.1 °C | 
O=C1C=CC(=O)N1CCCc1ccccc1 [Compound 8] | 0.11 µg/mL (≈ 0.511 µM) | 75.0 | 8.25 µg/mL (≈ 38.3 µM) |  |  |  | 
CC(C)CN1C(=O)C(Cl)=C(Cl)C1=O [Compound 44] | 0.43 µg/mL (≈ 1.94 µM) | >23.3 | > 10 µg/mL |  |  | 63.8 to 64.5 °C | 
O=C1C=CC(=O)N1c1cc(F)c(F)c(F)c1 [Compound 15] | 0.21 µg/mL (≈ 0.925 µM) |  | > 10 µg/mL |  |  | 153.4 to 165.6 °C | 
O=C1C(Cl)=C(Cl)C(=O)N1CCCc1ccccc1 [Compound 33] | 0.4 µg/mL (≈ 1.41 µM) | >25.0 | > 10 µg/mL |  |  |  | 
CC1=CC(=O)N(CCc2ccccc2)C1=O [Compound 22] | 1.22 µg/mL (≈ 5.67 µM) | 4.9 | 5.99 µg/mL (≈ 27.8 µM) |  |  |  | 
CCc1cccc(CC)c1N1C(=O)C=C(C)C1=O [Compound 24] | 0.55 µg/mL (≈ 2.26 µM) | 8.0 | 4.39 µg/mL (≈ 18 µM) |  |  | 195.8 to 197.3 °C | 
O=C1C=CC(=O)N1CCc1ccccc1 [Compound 7] | 0.1 µg/mL (≈ 0.497 µM) | 41.3 | 4.13 µg/mL (≈ 20.5 µM) |  |  |  | 
N=C(N)c1ccc(OCCCCCOc2ccc(C(=N)N)cc2)cc1 [pentamidine, reference compound] | 0.64 µg/mL (≈ 1.88 µM) |  |  |  |  |  | 
CCCCCN1C(=O)C=CC1=O [Compound 2] | 0.36 µg/mL (≈ 2.15 µM) | >27.8 | > 10 µg/mL |  |  |  | 

SMILES | IC50 [1] | SI [1] | CC50 [2, 3] | CC50 ([2]; THP1 cells) | anti-leishmanial activity, times better than amphotericin B [1] | melting point | IC50 β-(1,3)-glucan synthase (β-(1,3)-glucan synthase)
CCc1cccc(CC)c1N1C(=O)C=CC1=O [Compound 14] | 0.08 µg/mL (≈ 0.349 µM) | 48.6 | 3.89 µg/mL (≈ 17 µM) |  |  | 192.8 to 194.1 °C | 
CC(C)CN1C(=O)C=CC1=O [Compound 16] | < 0.0128 µg/mL |  | > 10 µg/mL |  | 10 | 52.8 to 53.9 °C | 
CCCCCCCCN1C(=O)C(Cl)=C(Cl)C1=O [Compound 31] | 0.48 µg/mL (≈ 1.73 µM) | >20.8 |  | > 10 µg/mL |  |  | 
CCCCCN1C(=O)C(Cl)=C(Cl)C1=O [Compound 29] | 0.65 µg/mL (≈ 2.75 µM) | >15.4 |  | > 10 µg/mL |  |  | 
CC1=CC(=O)N(C2CCCCC2)C1=O [Compound 27] | 0.89 µg/mL (≈ 4.61 µM) | 8.0 | 7.15 µg/mL (≈ 37 µM) |  |  | 65.6 to 66.5 °C | 
Cc1cccc(C)c1N1C(=O)C=CC1=O [Compound 13] | 0.1 µg/mL (≈ 0.497 µM) | 36.5 | 3.65 µg/mL (≈ 18.1 µM) |  |  | 188.8 to 190.4 °C | 
O=C1C=CC(=O)N1Cc1ccccc1 [Compound 6] | 0.08 µg/mL (≈ 0.427 µM) | 57.0 | 4.56 µg/mL (≈ 24.4 µM) |  |  |  | 
CCCCCCN1C(=O)C=C(C)C1=O [Compound 19] | 0.81 µg/mL (≈ 4.15 µM) | 7.3 | 5.89 µg/mL (≈ 30.2 µM) |  |  |  | 
CCN1C(=O)C=CC1=O [N-ethyl-maleimide] |  |  |  |  |  |  | 8.5 ± 1.1 µg/mL (≈ 67.9 µM)
O=C1C(Cl)=C(Cl)C(=O)N1CCc1ccccc1 [Compound 32] | 1.64 µg/mL (≈ 6.07 µM) | >6.1 |  | > 10 µg/mL |  |  | 
Cc1cccc(C)c1N1C(=O)C(Cl)=C(Cl)C1=O [Compound 38] | 0.45 µg/mL (≈ 1.67 µM) | >22.2 |  | > 10 µg/mL |  | 200.8 to 201.6 °C | 
Cc1ccc(N2C(=O)C(Cl)=C(Cl)C2=O)cc1 [Compound 35] | 0.66 µg/mL (≈ 2.58 µM) | >15.2 |  | > 10 µg/mL |  |  | 
CCc1cccc(CC)c1N1C(=O)C(Cl)=C(Cl)C1=O [Compound 39] | 0.13 µg/mL (≈ 0.436 µM) | >76.9 |  | > 10 µg/mL |  | 204.1 to 205.8 °C | 
O=C1C(Cl)=C(Cl)C(=O)N1c1ccccc1 [Compound 34] | 0.76 µg/mL (≈ 3.14 µM) | >13.2 |  | > 10 µg/mL |  |  | 
O=C1C(Cl)=C(Cl)C(=O)N1C1CCCCC1 [Compound 45] | 0.26 µg/mL (≈ 1.05 µM) | >38.5 |  | > 10 µg/mL |  | 67.2 to 68.5 °C | 
CCCCCCCCCCCCN1C(=O)C=CC1=O [Compound 5] | 2.21 µg/mL (≈ 8.33 µM) | >4.5 | > 10 µg/mL |  |  |  | 
CC(C)(C)N1C(=O)C=CC1=O [N-tert-butyl-maleimide] |  |  |  |  |  |  | 13.7 ± 2.3 µg/mL (≈ 89.4 µM)
CC1=CC(=O)N(c2c(C)cccc2C)C1=O [Compound 23] | 13.2 µg/mL (≈ 61.2 µM) | >0.8 | > 10 µg/mL |  |  | 190.8 to 192 °C | 
O=C1C(Cl)=C(Cl)C(=O)N1c1ccc(Cl)cc1 [Compound 37] | 0.59 µg/mL (≈ 2.13 µM) | >16.9 |  | > 10 µg/mL |  |  | 
Cc1ccc(Cl)cc1N1C(=O)C(Cl)=C(Cl)C1=O [Compound 41] | 0.11 µg/mL (≈ 0.379 µM) | >90.9 |  | > 10 µg/mL |  | 160.1 to 161.4 °C | 
CCCCCCN1C(=O)C=CC1=O [Compound 3] | 0.11 µg/mL (≈ 0.607 µM) | >90.9 | > 10 µg/mL |  |  |  | 
O=C1C(Cl)=C(Cl)C(=O)N1c1ccc(F)cc1 [Compound 36] | 0.36 µg/mL (≈ 1.38 µM) | >27.8 | > 10 µg/mL |  |  |  | 
O=C1C=CC(=O)N1c1ccc(Cl)cc1 [Compound 12] | 1.02 µg/mL (≈ 4.91 µM) | >9.8 | > 10 µg/mL |  |  |  | 
CCCCCCCCN1C(=O)C=C(C)C1=O [Compound 20] | 0.96 µg/mL (≈ 4.3 µM) | 8.4 | 8.1 µg/mL (≈ 36.3 µM) |  |  |  | 
